Assay results as given in paper PMC10957239 (Carbohydrate research, 2024).
pKd: −log10 of the molar value.

Target: T1, rhDectin-2 (Homo sapiens, UniProt Q6EIG7)
T1 sequence (Q6EIG7 42-209 limits assumed): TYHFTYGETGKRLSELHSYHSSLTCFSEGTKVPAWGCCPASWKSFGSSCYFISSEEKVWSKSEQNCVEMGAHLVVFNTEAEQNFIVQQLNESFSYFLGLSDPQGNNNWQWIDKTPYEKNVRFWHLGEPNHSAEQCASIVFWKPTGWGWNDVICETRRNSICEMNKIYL
Assay: biolayer interferometry
Format: binding

## C=CCO[C@H]1O[C@H](CO)[C@@H](OP(=O)(O)O[C@H]2O[C@H](CO)[C@@H](O)[C@H](O)[C@@H]2O)[C@H](O)[C@@H]1O [compound 7, Allyl α-D-mannopyranoside α-D-mannopyranosyl-4-sodium phosphate]
  pKd: 4.87
